# Source: patent publication US20060142390A1, “Treatment for severe melancholic depression” (priority 2004, published 2006)
# Legend:
# [1] = system: non-responsive patients on standard therapy; assay: Earlier trials of 96% pure EPA as add on to standard therapy in non-responsive patients; Bech score over time; type: in vivo, human; design: key to Bech score, Mean: Bech score = sum of 6 HDRS items; settings: for Bech score, Mean: Add on therapy
# From the text: (§1) The primary objective was to examine the effects of 96% pure EPA versus placebo on the Hamilton Depression Rating Scale (HDRS) in patients with a new or recurrent episode of depression. • 1. The Bech Scale (sum of 6 items as specified) was used as the instrument to measure efficacy across all subjects, i.e. the reduction of the Bech Score in the course of the trial, by comparing this change in the active groups with that in the placebo group. The Bech Scale consists of 6 items from the original HDRS: depression, guilt, work/interest, psychomotor retardation, anxiety psychic and general somatic symptoms (loss of energy, tiredness) and has been successfully used in several trials (Bech 2002 Acta Psychiatry Scand vol 106; p 252-264). • 2. For the differentiation of the subgroups of subjects, item 6 (early morning awakening), item 12 (loss of appetite) and item 16 (weight loss) were chosen from the HDRS, to identify subjects suffering from severe melancholic features. These items are also related to the definition of the melancholia specifier according the DSM-IV (American Psychiatric Association: 4th Edition, 2000). This specification was only done once, i.e. at the baseline visit (v1). Patients with a score of 2 in any of these 3 items were regarded as having severe melancholic items and therefore belonging the severe melancholic group, the others were regarded as not belonging to this group. The characteristics could change in the course of treatment, therefore it was important that only the condition at baseline was used for the definition. Results:
# The following presents the Bech-Score over time in the severe melancholic groups, contrasted with those subjects showing no severe melancholic signs.
# [2] = system: outpatients with a new episode of depression; assay: Study of 96% pure EPA (ethyl ester) as monotherapy versus placebo in depression; Bech Scale and depression sub score of the HDRS; type: in vivo, human; design: key to Bech score, Mean: Bech score = sum of 6 HDRS items; key to Change of Bech score: reduction of Bech score (sum of 6 HDRS items) over trial; key to Depression subscore (item1, item2, item3), Mean / Depression subscore, Mean: sum of HDRS item 1, item 2 and item 3; settings: for Bech score, Mean / Depression subscore (item1, item2, item3), Mean / Depression subscore, Mean: EPA any dose; for Depression subscore (item1, item2, item3), Mean: ITT
# Procedure: as §1, with “A study was performed on outpatients with a new episode of depression using 96% pure EPA, as the ethyl ester, as a monotherapy for treatment of depression. The primary” for “The primary”, “definition. Results: An analysis of a less frequently used, but pre-specified sub score, i.e. the depression sub score, which is the sum of item 1 (depression), item 2 (guilt) and item 3 (suicidality), confirmed the findings.” for “definition. Results:”
smiles,measurement,setting,value
"CC/C=C\C/C=C\C/C=C\C/C=C\C/C=C\CCCC(=O)O [EPA, all cis (or all z) 5,8,11,14,17-eicosapentaenoic acid]","Bech score, Mean","[1]; no severe melancholic signs, Bech l2 (week 2)",8.3
same,"Bech score, Mean","[1]; no severe melancholic signs, Bech l4 (week 4)",7.3
same,"Bech score, Mean","[1]; no severe melancholic signs, Bech l8 (week 8)",6.7
same,"Bech score, Mean","[1]; no severe melancholic signs, Bech l12 (week 12)",6.7
same,"Bech score, Mean","[1]; no severe melancholic signs, Bech v1 (baseline)",9.8
same,"Bech score, Mean","[1]; with severe melancholic signs, Bech l2 (week 2)",8.1
same,"Bech score, Mean","[1]; with severe melancholic signs, Bech l4 (week 4)",6.8
same,"Bech score, Mean","[1]; with severe melancholic signs, Bech l8 (week 8)",5.9
same,"Bech score, Mean","[1]; with severe melancholic signs, Bech l12 (week 12)",5.3
same,"Bech score, Mean","[1]; with severe melancholic signs, Bech v1 (baseline)",9.0
same,Improvement of Bech score,"[1]; add on therapy, patients with severe melancholic features, 12 weeks, placebo 2.8 points, p<0.05",3.7 points
same,"Bech score outcome at 12 weeks compared with placebo (ANVOVA, baseline as covariate, last observation carried forward)","[1]; add on therapy, patients with severe melancholic signs",statistically superior
same,Change of Bech score compared with placebo,[2]; ITT group,no significant difference
same,Change of Bech score,"[2]; ITT group, all subjects, placebo changed by 3.9 points",4.0 points
same,"Bech score, Mean","[2]; ITT group, Bech l2, after 2 weeks, last observation carried forward",8.1
same,"Bech score, Mean","[2]; ITT group, Bech l4, after 4 weeks, last observation carried forward",6.6
same,"Bech score, Mean","[2]; ITT group, Bech l6, after 6 weeks, last observation carried forward",6.3
same,"Bech score, Mean","[2]; ITT group, Bech v1 = baseline week 1",10.3
same,"Depression subscore (item1, item2, item3), Mean",[2]; baseline,4.3
same,"Depression subscore (item1, item2, item3), Mean","[2]; outcome, LOCF",2.3
same,"Bech score, Mean","[2]; No severe melancholic signs, Bech l2 (week 2)",8.8
same,"Bech score, Mean","[2]; No severe melancholic signs, Bech l4 (week 4)",6.3
same,"Bech score, Mean","[2]; No severe melancholic signs, Bech l6 (week 6)",6.1
same,"Bech score, Mean","[2]; No severe melancholic signs, Bech v1 (baseline)",10.2
same,"Depression subscore, Mean","[2]; No severe melancholic signs, baseline",4.4
same,"Depression subscore, Mean","[2]; No severe melancholic signs, outcome",2.4
same,"Bech score, Mean","[2]; With severe melancholic signs, Bech l2 (week 2)",7.3
same,"Bech score, Mean","[2]; With severe melancholic signs, Bech l4 (week 4)",7.0
same,"Bech score, Mean","[2]; With severe melancholic signs, Bech l6 (week 6)",6.5
same,"Bech score, Mean","[2]; With severe melancholic signs, Bech v1 (baseline)",10.3
same,"Depression subscore, Mean","[2]; With severe melancholic signs, baseline",4.1
same,"Depression subscore, Mean","[2]; With severe melancholic signs, outcome",2.3
same,Change of Bech score compared with placebo,[2]; non-severe melancholic group,not significantly different
same,Change of Bech score,"[2]; non-severe melancholic group, placebo change 5.0",4.1
same,"Depression sub score outcome compared with placebo (ANVOVA, baseline as covariate)",[2]; patients with severe melancholic signs,significant superiority
same,Improvement of depression sub score,"[2]; patients with severe melancholic signs, placebo 0.7 points, p<0.05",1.8 points
same,Improvement of Bech score,"[2]; patients with severe melancholic signs, placebo 2.9 points, p<0.05",3.8 points
